Results on 6 compounds are retold here after PMC7072645, “Targeting the Class A Carbapenemase GES-5 via Virtual Screening” (Biomolecules, 2020).

pKi: −log10 of the molar value.

Series [1] deals with T1, GES-5 (Klebsiella pneumoniae, UniProt Q09HD0).
T1 construct: made in house; host or cells: E. coli BL21(DE3)
The format is biochemical. The following applies: reporter substrate, purified recombinant GES-5. The method, then: For protein expression, competent E. coli BL21(DE3) cells (PROMEGA, Madison, WI, USA) were transformed with recombinant plasmid blaGES-5/pet24a(+) as reported. Protein purification was performed using an Äkta Prime plus chromatograph system (GE Healthcare Life Sciences, Freiburg, Germany). GES-5 (Uniprot ID Q09HD0) was conveniently purified in a single step using a Macro-Prep High Q resin (Bio-Rad, Hercules, CA, USA.).

The target of series [2] is T1, GES-5. Briefly: GES-5 hydrolysis inhibition, nitrocefin spectrophotometric assay. Type of series: biochemical. The following applies: for LE vs. GES-5: ligand efficiency from Ki vs GES-5. The method, then:
(§1) Reactions were monitored using a Jasco V730 spectrophotometer. […] In order to perform spectrophotometric tests, compounds were dissolved in dimethyl sulfoxide (DMSO) to a concentration of 25 mM and stored at −20 °C. […] The reaction was typically initiated by adding GES-5 (2 nM final concentration), previously dialyzed in the reaction buffer. […] For KPC-2 experiments, the protein was obtained, and assays were conducted as previously reported.

For a further series, the target named is KPC-2 (Klebsiella pneumoniae, UniProt Q9F663). Briefly: KPC-2 inhibition assay, conducted as previously reported. The format is biochemical. Conditions: for % inhibition at [1mM] vs KPC-2: 1 mM inhibitor; for pKi: calculated from IC50 by Cheng-Prusoff; for LE vs. KPC-2: ligand efficiency from Ki vs KPC-2. The method, then:
as §1

Series [3] deals with O=C(Cc1cccs1)N[C@@H]1C(=O)N2C(C(=O)O)=C(/C=C/c3ccc([N+](=O)[O-])cc3[N+](=O)[O-])CS[C@H]12. Briefly: purified protein, by the assay type. The following applies: other: reporter substrate, purified recombinant GES-5.

T1 sequence (Q09HD0 19-287): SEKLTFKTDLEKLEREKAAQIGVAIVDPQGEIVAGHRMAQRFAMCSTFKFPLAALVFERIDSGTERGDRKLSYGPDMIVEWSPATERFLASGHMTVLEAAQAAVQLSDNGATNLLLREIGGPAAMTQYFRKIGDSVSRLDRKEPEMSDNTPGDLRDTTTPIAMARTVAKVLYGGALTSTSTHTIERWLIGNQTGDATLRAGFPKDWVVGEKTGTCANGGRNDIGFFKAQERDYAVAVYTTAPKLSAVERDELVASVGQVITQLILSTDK
Chain of KPC-2 (Q9F663 25-293, looked up, species assumed): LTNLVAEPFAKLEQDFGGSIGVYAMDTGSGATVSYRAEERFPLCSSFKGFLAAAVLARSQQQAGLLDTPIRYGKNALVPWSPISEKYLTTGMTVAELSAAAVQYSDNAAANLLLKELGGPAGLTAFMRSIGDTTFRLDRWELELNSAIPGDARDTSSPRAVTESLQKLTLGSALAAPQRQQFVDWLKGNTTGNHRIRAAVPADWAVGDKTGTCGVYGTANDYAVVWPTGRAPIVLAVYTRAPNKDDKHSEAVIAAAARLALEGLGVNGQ

For orientation: Km means the concentration of substrate that gives half-maximal velocity. As for `O=C(Cc1cccs1)N[C@@H]1C(=O)N2C(C(=O)O)=C(CSc3ccc([N+](=O)[O-])c(C(=O)O)c3)CS[C@H]12` [CENTA], on GES-5 [1], the Km turned out to be 524 µM.

For orientation: pKi means the Ki on a negative log10 scale, so that one unit is a factor of ten. As a reminder, the % inhibition is the change of the read-out against control, counted positive when it falls. A lower % inhibition goes with a response near the control. As to `COc1cc(Br)c(-c2nnn[nH]2)cc1OC` [Compound 8], at GES-5 [2], the pKi is 3.05 and the “LE vs. GES-5” value is listed as 0.89 (0.27) kcal/mol/non-hydrogen atom. Also, at KPC-2, the “% inhibition at [1mM] vs KPC-2” value is recorded as “at least 30%”, the pKi was 3.46 and the “LE vs. KPC-2” value is listed as 0.30 kcal/mol/non-hydrogen atom.

With `O=C(O)c1cccc(S(=O)(=O)Nc2cccnc2)c1` [Compound 12], at GES-5 [2], the pKi is 3.00 and the “LE vs. GES-5” value was 1.01 (0.22) kcal/mol/non-hydrogen atom. In addition, at KPC-2, the “% inhibition at [1mM] vs KPC-2” value is recorded as “at least 30%”, the pKi is 2.86 and the “LE vs. KPC-2” value was 0.21 kcal/mol/non-hydrogen atom.

Turning to `Nc1nc(=O)n(CC(O)C(=O)O)cc1Br` (centres unmarked) [Compound 13], the pKi on GES-5 [2] was 3.09. On KPC-2, the “% inhibition at [1mM] vs KPC-2” value was “at least 30%”, the pKi was 3.55 and the “LE vs. KPC-2” value is recorded as 0.33 kcal/mol/non-hydrogen atom.

Consider `COc1ccc2[nH]c(C(=O)O)nc2c1` [Compound 43], for which, on GES-5 [2], the “% inhibition at [1mM] vs GES-5” value is 41% and the pKi was 3.18. Moreover, at KPC-2, the pKi was 3.35 and the “LE vs. KPC-2” value was 0.33 kcal/mol/non-hydrogen atom.

Turning to GES-5 (Klebsiella pneumoniae), the Km in series [3] was found to be 208 µM.
